Our source for the IC50 values is US10328077B2 (CELGENE CORPORATION, priority 2016, dated 2019).

SMILES strings stand for the structures.

One experiment concerns the target human LSD-1 (Homo sapiens (Human), UniProt O60341). The experiment can be described thus: In vitro enzyme inhibition assay LSD-1 (TR-FRET). The experiment is classed as biochemical. The conditions noted are these: TR-FRET, H3K4me1-biotin labeled peptide. The text has this:
This assay determines the ability of a test compound to inhibit LSD-1 demethylase activity.
The enzymatic assay of LSD-1 activity is based on Time Resolved-Fluorescence Resonance Energy Transfer (TR-FRET) detection.

The test system of experiment [1] is Kasumi-1 AML cancer cell line. Nature of the experiment: Kasumi-1 AML cell line proliferation assay (Cell-MTS). Format: cell-based. The settings on record: Homo sapiens, 168 hours. From the text:
Colorimetric cellular assay to assess the ability of LSD-1 small molecule inhibitors to effect the proliferation of the established AML cancer cell line Kasumi-1
This Cell-MTS assay is a 7-day plate based colorimetric assay which quantifies the amount of newly generated NADH in the presence and absence of test compound. These NADH levels are used as a proxy for the quantification of cancer cell proliferation.
The established cancer cell line Kasumi-1 with a verified p53 mutation were purchased from American Type Culture Collection (ATCC) and routinely passaged according to ATCC published protocols. For routine assay these cells were seeded at a density of 20,000 cells per 96-well. […] At the end of this compound incubation period, 80 μl of media is removed and 20 μL of CellTiter 96® AQueous Non-Radioactive Cell Proliferation Assay solution (Promega) is added. The cells are incubated until the OD490 is >0.6. IC50 values are calculated using the IDBS XLfit software package and include background subtracted OD490 values and normalization to DMSO controls.

Experiment [2] deals with CD11b expression in THP-1 (AML) cells. The experiment can be described thus: LSD-1 CD11b cellular assay (flow cytometry). The settings on record: Homo sapiens, THP-1, 96 h, read-out: THP-1 IC50.
Description: To analyze LSD-1 inhibitor efficacy in cells, a CD11b flow cytometry assay was performed. […] LSD-1 test compounds were serially diluted in DMSO. The dilutions were added to each well accordingly to a final concentration of 0.2% DMSO. The cells were incubated at 37 degrees Celsius in 5% CO2 for 4 days. 250 μL of each well was transferred to a well in a 96 well round bottom plate. The plate was centrifuged at 1200 rpm at 4 degrees Celsius in a Beckman Coulter Alegra 6KR centrifuge for 5 minutes. The media was removed leaving the cells at the bottom of the wells. The cells were washed in 100 μL cold HBSS (Hank's Balanced Salt Solution) plus 2% BSA (Bovine Serum Albumin) solution and centrifuged at 1200 rpm at 4 degrees Celsius for 5 minutes. The wash was removed. […] The cells were centrifuged and washed two times in 100 μl HBSS plus 2% BSA. After the final spin the cells were resuspended in 100 μL HBSS plus 2% BSA containing 1 μg/mL DAPI (4′,6-diamidino-2-phenylindole). The cells were then analyzed by flow cytometry in a BD FACSAria machine. Cells were analyzed for CD11b expression. The percent of CD11b expressing cells for each inhibitor concentration was used to determine an IC50 curve for each compound analyzed.

For `Cn1cc2cc(-c3c(-c4ccc(C#N)c(F)c4)nc(N4CCCNCC4)n(C)c3=O)ccc2n1` [Example 66, 4-[2-[1,4]diazepan-1-yl-1-methyl-5-(2-methyl-2H-indazol-5-yl)-6-oxo-1,6-dihydro-pyrimidin-4-yl]-2-fluoro-benzonitrile], the IC50 (at human LSD-1; in experiment [1]; in experiment [2]) was less than 100 nM each time.

In the case of `COc1ccc(-c2c(-c3ccc(C#N)c(F)c3)nc(N3CCC(N)CC3)n(C)c2=O)cn1` [Example 8, 4-[2-(4-amino-piperidin-1-yl)-5-(6-methoxy-pyridin-3-yl)-1-methyl-6-oxo-1,6-dihydro-pyrimidin-4-yl]-2-fluoro-benzonitrile], the IC50 (at human LSD-1; in experiment [1]; in experiment [2]) was less than 100 nM in each case.

Turning to `Cn1cc2cc(-c3c(-c4ccc(C#N)cc4)nc(N4CCC(N)CC4)n(C)c3=O)ccc2n1` [Example 24, 4-[2-(4-aminopiperidyl)-1-methyl-5-(2-methyl(2H-indazol-5-yl))-6-oxohydropyrimidin-4-yl]benzenecarbonitrile], the IC50 in experiment [1] and in experiment [2] was less than 100 nM throughout.

In the case of `Cn1c(N2CCC(N)CC2)nc(-c2ccc(C#N)c(F)c2)c(-c2cnn(CC(F)(F)F)c2)c1=O` [Example 34, 4-{2-(4-amino-piperidin-1-yl)-1-methyl-6-oxo-5-[1-(2,2,2-trifluoro-ethyl)-1H-pyrazol-4-yl]-1,6-dihydro-pyrimidin-4-yl}-2-fluoro-benzonitrile], the IC50 (against human LSD-1; in experiment [1]; in experiment [2]) was less than 100 nM in each case.

As to `COc1ccc(-c2c(-c3ccc(C#N)c(F)c3)nc(N3CCC(N)CC3)n(C)c2=O)cc1` [Example 6, 4-[2-(4-amino-piperidin-1-yl)-5-(4-methoxy-phenyl)-1-methyl-6-oxo-1,6-dihydro-pyrimidin-4-yl]-2-fluoro-benzonitrile], the IC50 (on human LSD-1; in experiment [1]; in experiment [2]) was less than 100 nM in each case.

For the compound `COc1ccc(-c2c(-c3ccc(C#N)cc3)nc(N3CCC(N)CC3)n(C)c2=O)cn1` [Example 3, 4-[2-(4-amino-piperidin-1-yl)-5-(6-methoxy-pyridin-3-yl)-1-methyl-6-oxo-1,6-dihydro-pyrimidin-4-yl]-benzonitrile], the IC50 (on human LSD-1; in experiment [1]; in experiment [2]) was less than 100 nM each time.

On to `Cc1ccc(-c2c(-c3ccc(C#N)c(F)c3)nc(N3CCC(N)CC3)n(C)c2=O)cn1` [Example 9], for which the IC50 (on human LSD-1; in experiment [1]; in experiment [2]) was less than 100 nM in each case.

For the compound `Cn1c(N2CCC(N)CC2)nc(-c2ccc(C#N)c(F)c2)c(-c2ccc3c(cnn3C)c2)c1=O` [Example 35, 4-[2-(4-amino-piperidin-1-yl)-1-methyl-5-(1-methyl-1H-indazol-5-yl)-6-oxo-1,6-dihydro-pyrimidin-4-yl]-2-fluoro-benzonitrile], the IC50 in experiment [1] and in experiment [2] was less than 100 nM each time.

Turning to `CN(C)C1CCN(c2nc(-c3ccc(C#N)c(F)c3)c(-c3ccc4nn(C)cc4c3)c(=O)n2C)CC1` [Example 71, 4-[2-(4-dimethylamino-piperidin-1-yl)-1-methyl-5-(2-methyl-2H-indazol-5-yl)-6-oxo-1,6-dihydro-pyrimidin-4-yl]-2-fluoro-benzonitrile], the IC50 (against human LSD-1; in experiment [1]; in experiment [2]) was less than 100 nM in each case.

Consider `CNc1ccc(-c2c(-c3ccc(C#N)c(F)c3)nc(N3CCC(N)CC3)n(C)c2=O)cc1F` [Example 91, 4-[2-(4-aminopiperidin-1-yl)-5-[3-fluoro-4-(methylamino)phenyl]-1-methyl-6-oxopyrimidin-4-yl]-2-fluorobenzonitrile], for which the IC50 (at human LSD-1; in experiment [2]) was less than 100 nM throughout.

Consider `Cn1c(N2CCC(N)CC2)nc(-c2ccc(C#N)c(F)c2)c(-c2ccc(CCO)cc2)c1=O` [Example 99, 4-[2-(4-aminopiperidin-1-yl)-5-[4-(2-hydroxyethyl)phenyl]-1-methyl-6-oxopyrimidin-4-yl]-2-fluorobenzonitrile], for which the IC50 (against human LSD-1; in experiment [2]) was less than 100 nM in each case.

Take `Cc1ccc(-c2c(-c3ccc(C#N)cc3)nc(N3CCC(N)CC3)n(C)c2=O)cn1` [Example 4, 4-[2-(4-amino-piperidin-1-yl)-1-methyl-5-(6-methyl-pyridin-3-yl)-6-oxo-1,6-dihydro-pyrimidin-4-yl]-benzonitrile]: the figures for the IC50 (against human LSD-1; in experiment [1]; in experiment [2]) were less than 100 nM, 100 to 1000 nM and less than 100 nM, respectively.

As for `Cn1c(N2CCC(N)CC2)nc(-c2ccc(C#N)cc2)c(-c2cnn(CC(F)(F)F)c2)c1=O` [Example 36, 4-{2-(4-amino-piperidin-1-yl)-1-methyl-6-oxo-5-[1-(2,2,2-trifluoro-ethyl)-1H-pyrazol-4-yl]-1,6-dihydro-pyrimidin-4-yl}-benzonitrile], the IC50 (against human LSD-1; in experiment [1]; in experiment [2]) was less than 100 nM in each case.

On to `COc1ccc(-c2c(-c3ccc(C#N)c(F)c3)nc(N3CCC(N)CC3)[nH]c2=O)cc1` [Example 122, 4-[2-(4-aminopiperidin-1-yl)-5-(4-methoxyphenyl)-6-oxo-1H-pyrimidin-4-yl]-2-fluorobenzonitrile], for which the IC50 (against human LSD-1; in experiment [2]) was less than 100 nM throughout.

As to `COc1ccc(-c2c(-c3ccc(C#N)c(F)c3)nc(N3CC[C@H](N)[C@H](F)C3)n(C)c2=O)cc1` [Example 79, 4-[2-((4S, 3R)-4-amino-3-fluoro-piperidin-1-yl)-5-(4-methoxy-phenyl)-1-methyl-6-oxo-1,6-dihydro-pyrimidin-4-yl]-2-fluoro-benzonitrile], the IC50 (against human LSD-1; in experiment [2]) was less than 100 nM in each case.

As for `CNC1CCN(c2nc(-c3ccc(C#N)c(F)c3)c(-c3ccc4nn(C)cc4c3)c(=O)n2C)CC1` [Example 65, 2-fluoro-4-[1-methyl-2-(4-methylamino-piperidin-1-yl)-5-(2-methyl-2H-indazol-5-yl)-6-oxo-1,6-dihydro-pyrimidin-4-yl]-benzonitrile], the IC50 (against human LSD-1; in experiment [1]; in experiment [2]) was less than 100 nM in each case.

As for `CN(C)c1ccc(-c2c(-c3ccc(C#N)c(F)c3)nc(N3CCC(N)CC3)n(C)c2=O)cc1` [Example 59, 4-[2-(4-amino-piperidin-1-yl)-5-(4-dimethylamino-phenyl)-1-methyl-6-oxo-1,6-dihydro-pyrimidin-4-yl]-2-fluoro-benzonitrile], the IC50 (against human LSD-1; in experiment [2]) was less than 100 nM in each case.

Turning to `COc1ccc(-c2c(-c3ccc(C#N)c(F)c3)nc(N3CC[C@H](N)C3)n(C)c2=O)cc1F` [Example 29, 4-[2-((3S)-3-amino-pyrrolidin-1-yl)-5-(3-fluoro-4-methoxy-phenyl)-1-methyl-6-oxo-1,6-dihydro-pyrimidin-4-yl]-2-fluoro-benzonitrile], the figures for the IC50 (on human LSD-1; in experiment [2]) were less than 100 nM and 100 to 1000 nM, respectively.

With `CNC1CCN(c2nc(-c3ccc(C#N)c(F)c3)c(-c3ccc4c(cnn4C)c3)c(=O)n2C)CC1` [Example 87, 2-fluoro-4-[1-methyl-2-[4-(methylamino)piperidin-1-yl]-5-(1-methylindazol-5-yl)-6-oxopyrimidin-4-yl] benzonitrile], the IC50 (on human LSD-1; in experiment [2]) was less than 100 nM throughout.
